Measurements taken from patent publication US20230398130A1, “METHODS AND COMPOSITIONS FOR DIFFERENTIATING STEM CELLS” (Massachusetts Institute of Technology, priority 2020, published 2023).

Columns and labels:
[1] = tested on: ISC-enriched organoids; assay: Primary screen, 384-well 2.5-D organoid differentiation (ENR+CD, 6 days): basal lysozyme secretion (LYZ.NS); assay type: cell-based, murine; conditions: for Dose.FC.LYZ.NS (log 2 fold change, basal lysozyme secretion) / Dose.FC.LYZ.NS (log 2 fold change): vs plate median; for Dose.FC.LYZ.NS: FC vs plate median; for SSMD.LYZ.NS: strictly standardized mean difference
Source text: (§1) High-throughput screening.

[2] = tested on: ISC-enriched organoids; assay: Primary screen, 384-well 2.5-D organoid differentiation (ENR+CD, 6 days, Target Selective Inhibitor Library, vs whole-plate median): ATP (CellTiter-Glo 3D, CTG); conditions: for Dose.FC.CTG (log 2 fold change, ATP) / Dose.FC.CTG (log 2 fold change): vs plate median; for Dose.FC.CTG: FC vs plate median; for SSMD.CTG: strictly standardized mean difference
[3] = tested on: ISC-enriched organoids; assay: Primary screen, 384-well 2.5-D organoid differentiation (ENR+CD, 6 days): carbachol-induced lysozyme secretion (LYZ.S); assay type: cell-based, murine; conditions: for Dose.FC.LYZ.S (log 2 fold change, carbachol-induced lysozyme secretion) / Dose.FC.LYZ.S (log 2 fold change): vs plate median; for Dose.FC.LYZ.S / Dose.FC.LYZ.S (log 2 fold change) / Z.LYZ.S / SSMD.LYZ.S: primary screen; for Dose.FC.LYZ.S: FC vs plate median; for Z.LYZ.S: standard z score; for SSMD.LYZ.S: strictly standardized mean difference
Source text: as §1

[4] = Dose 0.08 uM, standard z score of FC
[5] = Dose 0.40 uM, standard z score of FC
[6] = Dose 2.00 uM, standard z score of FC
[7] = Dose 10.00 uM, standard z score of FC
[8] = Dose 0.08 uM, primary screen, standard z score
[9] = Dose 0.40 uM, primary screen, standard z score
[10] = Dose 2.00 uM, primary screen, standard z score
[11] = Dose 10.00 uM, primary screen, standard z score
[12] = primary screen, 1st of the 4 dose lines of the treatment (dose not given)
[13] = primary screen, 2nd of the 4 dose lines of the treatment (dose not given)
[14] = primary screen, 3rd of the 4 dose lines of the treatment (dose not given)
[15] = primary screen, 4th of the 4 dose lines of the treatment (dose not given)
[16] = 1st of the 4 dose lines of the treatment (dose not given)
[17] = 2nd of the 4 dose lines of the treatment (dose not given)
[18] = 3rd of the 4 dose lines of the treatment (dose not given)
[19] = 4th of the 4 dose lines of the treatment (dose not given)

`C[C@@H]1CCN(C(=O)CC#N)C[C@@H]1N(C)c1ncnc2[nH]ccc12` [Tofacitinib (CP-690550, Tasocitinib)] was tested, and the “Z.LYZ.NS (standard z score)” value ([1]; dose 0.08 uM) was −0.146, the “Dose.FC.LYZ.NS (log 2 fold change, basal lysozyme secretion)” value ([1]; dose 0.08 uM) was −0.017 and the “Z.LYZ.NS (standard z score)” value ([1]; dose 0.40 uM) was −0.132. For the same molecule, the “Dose.FC.LYZ.NS (log 2 fold change, basal lysozyme secretion)” value ([1]; dose 0.40 uM) was −0.015, the “Z.LYZ.NS (standard z score)” value ([1]; dose 2.00 uM) was −0.061 and the “Dose.FC.LYZ.NS (log 2 fold change, basal lysozyme secretion)” value ([1]; dose 2.00 uM) was −0.007. The “Z.LYZ.NS (standard z score)” value ([1]; dose 10.00 uM) was −0.036, the “Dose.FC.LYZ.NS (log 2 fold change, basal lysozyme secretion)” value ([1]; dose 10.00 uM) was −0.004 and the “Z.CTG (standard z score)” value ([2]; dose 0.08 uM) was 0.312. For the same molecule, the “Dose.FC.CTG (log 2 fold change, ATP)” value ([2]; dose 0.08 uM) was 0.130, the “Z.CTG (standard z score)” value ([2]; dose 0.40 uM) was 0.595 and the “Dose.FC.CTG (log 2 fold change, ATP)” value ([2]; dose 0.40 uM) was 0.249. The “Z.CTG (standard z score)” value ([2]; dose 2.00 uM) was 0.278, the “Dose.FC.CTG (log 2 fold change, ATP)” value ([2]; dose 2.00 uM) was 0.117 and the “Z.CTG (standard z score)” value ([2]; dose 10.00 uM) was 0.563. The “Dose.FC.CTG (log 2 fold change, ATP)” value ([2]; dose 10.00 uM) was 0.236, the “Dose.FC.LYZ.S (log 2 fold change, carbachol-induced lysozyme secretion)” value ([3]; dose 0.08 uM) was 0.022 and the “Dose.FC.LYZ.S (log 2 fold change, carbachol-induced lysozyme secretion)” value ([3]; dose 0.40 uM) was 0.010. For the same molecule, the “Dose.FC.LYZ.S (log 2 fold change, carbachol-induced lysozyme secretion)” value ([3]; dose 2.00 uM) was 0.025 and the “Dose.FC.LYZ.S (log 2 fold change, carbachol-induced lysozyme secretion)” value ([3]; dose 10.00 uM) was 0.010.
With `CC(=O)O[C@H]1C[C@@H]2CC[C@@H]3[C@H](CC[C@@]4(C)[C@H]3C[C@H]([N+]3(C)CCCCC3)[C@@H]4OC(C)=O)[C@@]2(C)C[C@@H]1[N+]1(C)CCCCC1.[Br-].[Br-]` [Pancuronium dibromide] the Dose.FC.LYZ.NS ([1]; Dose 0.08 uM, primary screen) was 0.128 log 2 fold change, the Z.LYZ.NS [1, 4] was 1.118 and the Dose.FC.LYZ.NS ([1]; Dose 0.40 uM, primary screen) was 0.047 log 2 fold change. The Z.LYZ.NS [1, 5] was 0.406, the Dose.FC.LYZ.NS ([1]; Dose 2.00 uM, primary screen) was 0.093 log 2 fold change and the Z.LYZ.NS [1, 6] was 0.806. It also gave a Dose.FC.LYZ.NS ([1]; Dose 10.00 uM, primary screen) of 0.035 log 2 fold change, a Z.LYZ.NS [1, 7] of 0.302 and a Dose.FC.CTG ([2]; Dose 0.08 uM, primary screen) of 0.217 log 2 fold change. It also gave a Z.CTG [2, 4] of 0.519, a Dose.FC.CTG ([2]; Dose 0.40 uM, primary screen) of 0.226 log 2 fold change and a Z.CTG [2, 5] of 0.541. The Dose.FC.CTG ([2]; Dose 2.00 uM, primary screen) was −0.012 log 2 fold change, the Z.CTG [2, 6] was −0.029 and the Dose.FC.CTG ([2]; Dose 10.00 uM, primary screen) was 0.062 log 2 fold change. It also gave a Z.CTG [2, 7] of 0.148, a Dose.FC.LYZ.S ([3]; Dose 0.08 uM) of 0.213 log 2 fold change and a Dose.FC.LYZ.S ([3]; Dose 0.40 uM) of 0.094 log 2 fold change. The Dose.FC.LYZ.S ([3]; Dose 2.00 uM) was 0.099 log 2 fold change and the Dose.FC.LYZ.S ([3]; Dose 10.00 uM) was 0.004 log 2 fold change.
For SNS-314 Mesylate, the “Z.LYZ.NS (standard z score)” value ([1]; Dose 0.08 uM, primary screen) was −0.620, the “Dose.FC.LYZ.NS (log 2 fold change)” value ([1]; Dose 0.08 uM, primary screen) was −0.071 and the “Z.LYZ.NS (standard z score)” value ([1]; Dose 0.40 uM, primary screen) was −0.515. The “Dose.FC.LYZ.NS (log 2 fold change)” value ([1]; Dose 0.40 uM, primary screen) was −0.059, the “Z.LYZ.NS (standard z score)” value ([1]; Dose 2.00 uM, primary screen) was −1.111 and the “Dose.FC.LYZ.NS (log 2 fold change)” value ([1]; Dose 2.00 uM, primary screen) was −0.128. The “Z.LYZ.NS (standard z score)” value ([1]; Dose 10.00 uM, primary screen) was −1.109, the “Dose.FC.LYZ.NS (log 2 fold change)” value ([1]; Dose 10.00 uM, primary screen) was −0.127 and the “Z.CTG (standard z score)” value ([2]; Dose 0.08 uM, primary screen) was −1.591. The “Dose.FC.CTG (log 2 fold change)” value ([2]; Dose 0.08 uM, primary screen) was −0.666, the “Z.CTG (standard z score)” value ([2]; Dose 0.40 uM, primary screen) was −1.857 and the “Dose.FC.CTG (log 2 fold change)” value ([2]; Dose 0.40 uM, primary screen) was −0.777. The “Z.CTG (standard z score)” value ([2]; Dose 2.00 uM, primary screen) was −1.142, the “Dose.FC.CTG (log 2 fold change)” value ([2]; Dose 2.00 uM, primary screen) was −0.478 and the “Z.CTG (standard z score)” value ([2]; Dose 10.00 uM, primary screen) was −1.480. For the same molecule, the “Dose.FC.CTG (log 2 fold change)” value ([2]; Dose 10.00 uM, primary screen) was −0.620, the “Dose.FC.LYZ.S (log 2 fold change)” value ([3]; Dose 0.08 uM) was −0.115 and the “Dose.FC.LYZ.S (log 2 fold change)” value ([3]; Dose 0.40 uM) was −0.103. The “Dose.FC.LYZ.S (log 2 fold change)” value ([3]; Dose 2.00 uM) was −0.133 and the “Dose.FC.LYZ.S (log 2 fold change)” value ([3]; Dose 10.00 uM) was −0.198.
Work on `Cc1ccc(NCCCc2ccccc2)c(N)c1` [JSH-23] yielded a Dose.FC.LYZ.NS ([1]; Dose 0.08 uM, primary screen) of 0.054 log 2 fold change, a Z.LYZ.NS [1, 8] of 0.474 and a Dose.FC.LYZ.NS ([1]; Dose 0.40 uM, primary screen) of 0.079 log 2 fold change. For the same molecule, the Z.LYZ.NS [1, 9] was 0.688, the Dose.FC.LYZ.NS ([1]; Dose 2.00 uM, primary screen) was −0.002 log 2 fold change and the Z.LYZ.NS [1, 10] was −0.017. The Dose.FC.LYZ.NS ([1]; Dose 10.00 uM, primary screen) was −0.046 log 2 fold change, the Z.LYZ.NS [1, 11] was −0.399 and the SSMD.LYZ.NS [1, 12] was 0.371. For the same molecule, the SSMD.LYZ.NS [1, 13] was 0.452, the SSMD.LYZ.NS [1, 14] was −0.012 and the SSMD.LYZ.NS [1, 15] was −0.250. It also gave a Dose.FC.CTG ([2]; Dose 0.08 uM, primary screen) of 0.193 log 2 fold change, a Z.CTG [2, 8] of 0.462 and a Dose.FC.CTG ([2]; Dose 0.40 uM, primary screen) of 0.230 log 2 fold change. The Z.CTG [2, 9] was 0.548, the Dose.FC.CTG ([2]; Dose 2.00 uM, primary screen) was 0.074 log 2 fold change and the Z.CTG [2, 10] was 0.176. The Dose.FC.CTG ([2]; Dose 10.00 uM, primary screen) was 0.046 log 2 fold change, the Z.CTG [2, 11] was 0.110 and the SSMD.CTG [2, 12] was 0.462. For the same molecule, the SSMD.CTG [2, 13] was 0.536, the SSMD.CTG [2, 14] was 0.179 and the SSMD.CTG [2, 15] was 0.139. The Dose.FC.LYZ.S ([3]; Dose 0.08 uM) was 0.164 log 2 fold change, the Dose.FC.LYZ.S ([3]; Dose 0.40 uM) was 0.106 log 2 fold change and the Dose.FC.LYZ.S ([3]; Dose 2.00 uM) was 0.005 log 2 fold change. It also gave a Dose.FC.LYZ.S ([3]; Dose 10.00 uM) of −0.026 log 2 fold change, a Z.LYZ.S [3, 16] of 1.064 and a Z.LYZ.S [3, 17] of 0.686. The Z.LYZ.S [3, 18] was 0.032, the Z.LYZ.S [3, 19] was −0.171 and the SSMD.LYZ.S [3, 16] was 1.259. It also gave an SSMD.LYZ.S [3, 17] of 0.611, an SSMD.LYZ.S [3, 18] of 0.030 and an SSMD.LYZ.S [3, 19] of −0.147.
